Legend:
alpha2 adrenoceptor = assay: prejunctional alpha2 antagonist activity, isolated superfused guinea pig left atrium (shift of the clonidine concentration-response curve); format: cell-based
Method: Briefly, the heart is removed from a pentobarbital-anesthetized male guinea pig. The left atrium is removed, dissected free of extraneous tissue and mounted in a 2 ml. superfusion chamber. The tissue is paced at 60 pulse/minute and the sympathetic nerves excited at 6 minute intervals by field stimulation. The response to nerve stimulation is measured as the difference in contractile force between the basal contraction and peak contraction following a nerve stimulation. A concentration-response curve for clonidine (alpha2 agonist) is prepared by administering an increasing concentration of clonidine following each successive stimulation. The tissue is then superfused with the alpha2 antagonist to be tested for thirty minutes and the clonidine concentration- effect curve was repeated in the presence of antagonist. The receptor dissociation constant of the antagonist (KB) is defined as the antagonist concentration required to shift the log concentration-response curve of the agonist to the right by a factor of 2.

[1] = tested on: rabbit intraocular pressure; assay: normal rabbit intraocular pressure determination, instillation into the eye; format: in vivo; details: instilled into the rabbit eye; at one hour; relative to the untreated eye
Method: The measurement of intraocular pressure depends on subjecting the eye to a force that indents or flattens it. Either the effect of a particular force or the force for a given effect is measured. The specific procedure employed for the compounds of this invention is a normal rabbit intraocular pressure determination. A solution of 0.5% proparacaine hydrochloride diluted 1:10 with physiological saline is instilled into the eye of a rabbit. The lids are gently massaged over the cornea to insure good distribution of the solution. The eye is exposed by separating the lids and the tip of a probe is slowly placed on the cornea at the point where the curvature of the cornea is the greatest, i.e., on the optic axis. Employing an Alcon Applanation Pneumatonograph, the intraocular pressure is determined in each eye until a stable reading is obtained. West, C., Capelta, J. and Kaufman, H., Am. J. Ophthalmol. 74:505 (1972).
Nine rabbits are used in each study, three animals for each dose in most circumstances. […] Immediately following the initial reading, the formulations to be tested, comprising concentrations of 0.01 to 10% of active ingredient, are instilled and pressure readings are taken at 0.5, 1, 2, 3, 4, and 6 hours post-instillation. The intraocular pressure is determined from the value recorded on the pneumotonograph chart paper. A mean intraocular pressure value is calculated at each time point. […]

[2] = tested on: DOCA-salt hypertensive rat; assay: antihypertensive activity in DOCA-salt hypertensive rat, oral administration; format: in vivo
Method: (§1) Cannulas are run intradermally so as to be externalized in the dorso-sacral area of either side and kept in place by wound clips. The rats are allowed to regain consciousness after being placed in a small animal restrainer. The arterial cannula is connected to a pressure transducer for constant blood pressure and heart rate monitoring. Drugs are administered either orally via gavage or i.v. via the femoral vein cannula at a rate of 0.06 ml./minute.
(§2) The above test is conducted on both normotensive and hypertensive rats. DOCA Salt hypertensive rats are prepared from male uninephrectomized Sprague-Dawley rats. The rats, approximately six weeks of age, are lightly anesthetized with ether and subcutaneously implanted with a 25 mg. deoxycorticosterone acetate pellet in the left dorso-sacral area. Six days later a second pellet is implanted in the right dorso-sacral area. These rats are fed a normal laboratory diet, but are given 1% saline solution to drink in place of water. The rats are kept on the saline drinking water for 22-24 days.
The effect of the oral administration of 6-chloro-2,3,4,5-tetrahydro-3-methyl-1H-3-benzazepine on blood pressure in the DOCA-salt hypertensive rat was also determined.

[3] = tested on: conscious normotensive rabbits; assay: rabbit intraocular pressure determination, compound given systemically (ear vein infusion); format: in vivo; details: given systemically to rabbits; result in words
[4] = tested on: normotensive and hypertensive rats; assay: antihypertensive activity in conscious cannulated rats, i.v. administration; format: in vivo
Method: as §1, §2
The following table sets forth the effect of 6-chloro-2,3,4,5-tetrahydro-3-methyl-1 H-3-benzazepine on blood pressure after i.v. administration to both normotensive and hypertensive rats.

Row | Compound | alpha2 antagonist activity relative to the 6-chloro derivative (alpha2 adrenoceptor; comparison of KB values) | Kb (alpha2 adrenoceptor; isolated perfused guinea pig left atrium, antagonist concentration shifting the clonidine curve to the right by a factor of 2) | decrease of intraocular pressure [1] | Δ BP ([2]; 2 mg/kg PO) | Mean Arterial Pressure Post-Drug ([2]; 2 mg/kg PO, Pre-Drug 148 ± 11) | Δ BP ([2]; 5 mg/kg PO) | Mean Arterial Pressure Post-Drug ([2]; 5 mg/kg PO, Pre-Drug 160 ± 7) | Δ BP ([2]; 10 mg/kg PO) | Mean Arterial Pressure Post-Drug ([2]; 10 mg/kg PO, Pre-Drug 167 ± 8) | effect on systemic blood pressure [3] | Diastolic Blood Pressure Decrease BP ([4]; DOCA Salt Hypertensive rats, n = 4, 0.5 mg/kg I.V., Pre Drug 135 ± 5 MMHg) | Diastolic Blood Pressure Decrease BP ([4]; DOCA Salt Hypertensive rats, n = 4, 1.0 mg/kg I.V., Pre Drug 135 ± 5 MMHg) | Diastolic Blood Pressure Decrease BP ([4]; Normotensive (control) (Sprague-Dawley) rats, n = 4, 0.5 mg/kg I.V., Pre Drug 95 ± 7 MMHg) | Diastolic Blood Pressure Decrease BP ([4]; Normotensive (control) (Sprague-Dawley) rats, n = 4, 1.0 mg/kg I.V., Pre Drug 95 ± 7 MMHg) | Diastolic Blood Pressure Decrease BP ([4]; Normotensive (control) (Wistar-Kyoto) rats, n = 4, 0.5 mg/kg I.V., Pre Drug 115 ± 3 MMHg) | Diastolic Blood Pressure Decrease BP ([4]; Normotensive (control) (Wistar-Kyoto) rats, n = 4, 1.0 mg/kg I.V., Pre Drug 115 ± 3 MMHg) | Diastolic Blood Pressure Decrease BP ([4]; Spontaneously Hypertensive rats, n = 7, 0.5 mg/kg I.V., Pre Drug 167 ± 3 MMHg) | Diastolic Blood Pressure Decrease BP ([4]; Spontaneously Hypertensive rats, n = 7, 1.0 mg/kg I.V., Pre Drug 167 ± 3 MMHg)
1 | CN1CCc2ccc(Cl)cc2CC1 [7-chloro-2,3,4,5-tetrahydro-3-methyl-1H-3-benzazepine] | about one tenth | 150 nM |  |  |  |  |  |  |  |  |  |  |  |  |  |  |  | 
2 | CN1CCc2cccc(Cl)c2CC1 [6-chloro-2,3,4,5-tetrahydro-3-methyl-1H-3-benzazepine] |  |  | 3.5 mm of mercury | 17 ± 3 MM Hg | 131 ± 12 | 34 ± 4 MM Hg | 127 ± 5 | 68 ± 8 MM Hg | 99 ± 4 | no significant effect | 27 ± 3 MMHg | 33 ± 4 MMHg | 6 ± 2 MMHg | 13 ± 1 MMHg | 7 ± 2 MMHg | 10 ± 2 MMHg | 33 ± 7 MMHg | 46 ± 2 MMHg

Reference: patent EP0080779B1, “3-Benzazepines as alpha-2 antagonists” (SMITHKLINE BECKMAN CORPORATION, priority 1981, dated 1983)
